SMILES strings stand for the structures. Calls of active or inactive are those of the source.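 The calls were made as follows: active = clearly stronger inhibition of the target decarboxylase than of the coupling enzymes tested in parallel without it; inactive = the rest.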

As usually defined, the IC50 is the concentration at which inhibition is half-maximal.

The assay has as its target diphosphomevalonate decarboxylase (Streptococcus pneumoniae D39). Description: diphosphomevalonate decarboxylase inhibition dose curves – biochemical, PK/LDH-coupled NADH fluorescence, hexokinase coupling counter-screen, dose response (AID 550). The note with it: purified DPM-DC. A general note: The purpose of a counterscreen is to sort out artefacts and off-target activity.
On to `Cc1ccccc1CN1CCN(S(=O)(=O)c2ccc(F)cc2)CC1`, for which the result was inactive. For `CCOC(=O)CSc1cc(=O)n(C)c2cc(Cl)ccc12`, the outcome was inactive.

As to `Cc1c(C(=O)NCc2ccc3c(c2)OCO3)sc2nc(-c3ccccc3)cn12`, the result was inactive.

Turning to `COc1ccc(N2CCN(CCNS(=O)(=O)c3cccc4nsnc34)CC2)cc1`, the result was inactive.

As to `O=S(=O)(Nc1cccc2ncccc12)c1cccs1`, the result was inactive. Consider `O=C(CSc1nnc2ccccn12)Nc1ccccc1C(=O)NC1CC1`, for which the result was inactive. Still for that read-out and setting: under `O=c1[nH]c(-c2ccncc2)nc2ccccc12` stands “inactive”. Regarding `Cc1ccc(C2C3CN(C(C)C)CC=C3C(C#N)=C(N)C2(C#N)C#N)cc1` (stereo unspecified), the half-inhibitory concentration (IC50) was 39.6 µM. Take `CN(C)C(=O)Nc1cnc2ccccc2c1`: the result was inactive. Same read-out and setting: then `Clc1c(-c2nnc3n2CCC3)sc2ccccc12`, with “inactive”. `Cc1nc2cc(NC(=O)NCc3ccco3)ccc2n1C`: the outcome was inactive. Consider `CCCN(CC(=O)c1cc(C)n(C)c1C)S(=O)(=O)c1cccc(C(F)(F)F)c1`, for which the result was inactive. Turning to `CCOC(=O)COc1ccc2nsnc2c1Cl`, the outcome was inactive. For the compound `CN(C)CCSc1nnc(-c2ccccc2)o1`, the result was inactive. On the same count and under the same terms, then `CCc1c(C)c(C#N)c2nc3ccccc3n2c1Nc1c(C)n(C)n(-c2ccccc2)c1=O`, with “inactive”; and `CCOc1ccccc1OCC(=O)Nc1ccc(N2CCCCC2)cc1`, with “inactive”; and `CCC(=O)Nc1cccc(NC(=O)CSc2nnnn2Cc2ccccc2)c1`, with “inactive”. As to `CN(C)C(=O)N1CCC(C(=O)NCc2cccs2)CC1`, the result was inactive.

`Cc1nc2nc(C)c(CCC(=O)N3CCOCC3)c(C)n2n1`: the result was inactive.

With `CN(C)S(=O)(=O)c1cccc(C(=O)C2=C3SC=C(c4ccccc4)N3CC2)c1`, the result was inactive. On the same count and under the same terms, then `COc1ccc(C2C3=C(OC(C)=O)c4ccccc4C3=Nc3c2c(=O)n(C)c(=O)n3C)cc1` (stereo unspecified), with “inactive”; and `O=C(CCc1nc(-c2ccccc2F)no1)NCCN1CCc2ccccc2C1`, with “inactive”.

`Cc1nc(-c2cnn(-c3ccccc3)c2)c2cc(C)oc2n1`: the result was inactive. For `CCc1ccc(CCC(=O)Nc2ccc(C)c(C)c2)o1`, the outcome was inactive.

For `Cc1ccc(S(=O)(=O)NCCN2CCOCC2)cc1C`, the result was inactive.

For the compound `CCCC(=O)Nc1ccc(N2CCN(C(=O)CCC)CC2)cc1`, the result was inactive. Take `N#CC(C(=O)NC1CCCCC1)c1nc2ccccc2nc1N1CCCCC1` (stereo unspecified): the outcome was inactive.

On to `Cc1ccsc1C1C(C(=O)O)c2ccccc2C(=O)N1C` (stereo unspecified), for which the outcome was inactive. With `Cc1c(C(=O)NCC2CCCO2)sc2nc(-c3ccccc3)cn12` (stereo unspecified), the result was inactive. As for `CCCc1nnc(NC(=O)CN2CCOCC2)s1`, the result was inactive. The same measure, in the same setting: then `N#C/C(=C\C1CC=CCC1)c1nc2ccccc2[nH]1` (stereo unspecified), with “inactive”; and `Cc1cc(=O)oc2cc(OC(C)C(=O)O)c(Cl)cc12` (stereo unspecified), with “inactive”; and `Cc1cccc(OCC(O)Cn2c(-n3nc(C)cc3C)nc3c2c(=O)[nH]c(=O)n3C)c1` (stereo unspecified), with “inactive”. Turning to `COCCn1nnnc1CN(Cc1cccnc1)Cc1cc2cc(OC)ccc2[nH]c1=O`, the outcome was inactive. On to `O=C1CC(c2cccnc2)c2cc3c(cc2N1)OCO3` (stereo unspecified), for which the result was inactive. For `C=C(C)Cn1c(COc2ccccc2)nnc1SCC(=O)O`, the result was inactive. Still for that read-out and setting: then `CCOc1ccc(N(CC(=O)Nc2ccc(F)c(F)c2)S(=O)(=O)c2c(C)noc2C)cc1`, with “inactive”; and `COc1cccc(C(=O)Nc2ccc(NC(=O)C(C)C)nc2)c1`, with “inactive”. As to `Cc1c(C(=O)OCC(C)(C)CN(C)C)oc2ccccc12`, the result was inactive. Still for that read-out and setting: under `CCc1cc(/C(Cc2ccc3ccccc3n2)=N\O)c(O)cc1O` stands “inactive”; under `Cc1cc(N2CCN(C(=O)c3ccco3)CC2)n2nc(-c3cccc(Cl)c3)cc2n1`, “inactive”. Same read-out and setting: then `COc1cc(C(=O)Nc2ccc3c(c2)OCO3)ccc1-n1cnnn1`, with “inactive”; and `c1ccc(N2CCN(c3cnccn3)CC2)nc1`, with “inactive”; and `COc1ccccc1CNc1ncnc2nc[nH]c12`, with “inactive”. Regarding `CC(=O)Nc1cccc(NC(=O)CSc2nnnn2Cc2ccccc2)c1`, the result was inactive. Take `Cc1occc1C(=O)Nc1nnc(C(F)(F)F)s1`: the outcome was inactive. The same measure, in the same setting: under `S=c1[nH]nc(-c2ccccc2)n1C1C=CCCC1` (stereo unspecified) stands “inactive”; under `CCc1ccc(NC(=O)c2cnc3scc(C)n3c2=O)cc1`, “inactive”; under `OCCNc1ncnc2c1c(-c1ccccc1)c(-c1ccccc1)n2Cc1ccco1`, “inactive”. Same read-out and setting: then `Cc1ccc(S(=O)(=O)N2CCOCC(=O)NCCOCCNC(=O)COCC2)cc1`, with “inactive”; and `CC(C)(C)CC(=O)Nc1nnc(-c2cccs2)s1`, with “inactive”; and `CCOc1ncccc1C(=O)Nc1ccc2c(C)cc(=O)oc2c1`, with “inactive”. The same measure, in the same setting: under `O=C(c1ccccc1F)N(Cc1ccccc1)C1CCS(=O)(=O)C1` (stereo unspecified) stands “inactive”; under `Cc1cc(N2CCOCC2)c2c(N)c(Br)cc(C)c2n1`, “inactive”.

In the case of `CC(C)(O)P(C)(=O)c1ccccc1` (stereo unspecified), the result was inactive. The same measure, in the same setting: under `CCCOC(=O)Cc1n[nH]c(=O)[nH]c1=O` stands “inactive”. Still for that read-out and setting: under `Cc1ccc(OCCn2c(C)c(/C=N/n3cnnc3)c3ccccc32)cc1` stands “inactive”; under `Cc1noc(C)c1CSc1nc2ccccc2s1`, “inactive”; under `Cc1ccc(-n2c(SCC(=O)NCc3ccco3)nnc2-c2cccnc2)c(C)c1`, “inactive”.

With `CCn1c(SCC(=O)Nc2cccc(C(C)=O)c2)nnc1C(C)C`, the outcome was inactive. Turning to `Cc1c(NC(=O)C2CCN(S(=O)(=O)c3ccccc3)CC2)c(=O)n(-c2ccccc2)n1C`, the outcome was inactive. On to `COc1cccc(C(=O)OCn2nnc3ccccc3c2=O)c1`, for which the result was inactive. For `CCOC(=O)c1c(C)n(OCc2ccccc2)c2ccc3c(no[n+]3[O-])c12`, the result was inactive.

With `COc1ccc(N2C(C)=CS/C2=C(/C#N)c2nnc(N3CCOCC3)n2-c2ccccc2)cc1`, the result was inactive. Turning to `COc1cccc(/C=N\n2c(C)nnc2C)c1OC`, the result was inactive.

Turning to `O=C(CSc1ncnc2c1cnn2-c1ccccc1)Nc1ccc2c(c1)OCO2`, the result was inactive. On the same count and under the same terms, then `O=P1(NC2CCCC2)COc2ccccc2OC1`, with “inactive”; and `CCN(CCNC(=O)C1CCN(c2nnc(-n3cccc3)s2)CC1)c1ccccc1`, with “inactive”; and `Cc1cc(=O)[nH]c2ccccc12`, with “inactive”. Regarding `CCOC(=O)c1cc2c(=O)n(C)c3ccccc3c2s1`, the result was inactive. Same read-out and setting: then `Cn1c(=O)[nH]c(=O)c2c1nc(NC1CCCCC1)n2Cc1ccccc1`, with “inactive”.

The values are drawn from PubChem BioAssay AID550 (SRMLSC, 2006).
